Article PMC12552596 (Nature Communications, 2025)

Molecular target: T1, human glucose-6-phosphate transporter (G6PT) (Homo sapiens, UniProt O43826, W138F)
T1 sequence (O43826 1-429 W138F): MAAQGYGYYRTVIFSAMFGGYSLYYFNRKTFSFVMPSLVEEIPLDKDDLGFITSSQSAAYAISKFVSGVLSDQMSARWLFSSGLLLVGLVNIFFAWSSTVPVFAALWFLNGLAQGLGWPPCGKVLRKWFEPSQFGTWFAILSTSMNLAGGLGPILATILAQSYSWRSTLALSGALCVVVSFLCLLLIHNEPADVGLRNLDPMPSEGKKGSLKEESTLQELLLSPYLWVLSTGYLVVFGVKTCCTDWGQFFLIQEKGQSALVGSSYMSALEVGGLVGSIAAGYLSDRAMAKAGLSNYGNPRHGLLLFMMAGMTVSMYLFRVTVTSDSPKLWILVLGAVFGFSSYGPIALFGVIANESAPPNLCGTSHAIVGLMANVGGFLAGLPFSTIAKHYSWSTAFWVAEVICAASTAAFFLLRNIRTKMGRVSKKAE
T1 sequence (P35575 1-357 partner): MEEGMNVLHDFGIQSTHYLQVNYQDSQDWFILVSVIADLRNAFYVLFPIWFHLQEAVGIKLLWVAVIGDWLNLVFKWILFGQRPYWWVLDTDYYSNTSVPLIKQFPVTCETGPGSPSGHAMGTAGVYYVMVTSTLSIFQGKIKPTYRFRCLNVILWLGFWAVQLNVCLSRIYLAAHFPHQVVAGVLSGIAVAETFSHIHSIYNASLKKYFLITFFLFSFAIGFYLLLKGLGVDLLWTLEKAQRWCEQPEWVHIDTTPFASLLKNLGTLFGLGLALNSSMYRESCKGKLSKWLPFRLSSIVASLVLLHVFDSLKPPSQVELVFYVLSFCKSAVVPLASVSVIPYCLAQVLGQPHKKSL
Format: cell-based

IC50: 523 ± 210 µM
Compound: O=C(/C=C/c1ccc(O)c(O)c1)O[C@@H]1C[C@](O)(C(=O)O)C[C@@H](O)[C@H]1O [CHA, chlorogenic acid]
